Laboratory results taken from patent US6376710B2, “Amidine compounds and their use as pesticides” (Sumitomo Chemical Co., Ltd., priority 2000, dated 2002).
Read-outs that look alike come from different tables or passages of the source.

Assays:
Format in all cases: in vivo
[1] = tested on: German cockroach (Blattella germanica); experiment: Test Example 2: treated filter paper with sucrose bait, German cockroach male adults, mortality; settings: 144 h
[2] = tested on: house fly (Musca domeestica); experiment: Test Example 3: treated filter paper with sucrose bait, house fly female adults, mortality; settings: 24 h
Description: On the bottom of a polyethylene cup of 5.5 cm in diameter was placed a filter paper of the same size, to which a water dilution (500 ppm) of each of the formulations obtained from present compounds 1, 2, 3, 4, 5, 6, 7, 8, 9, 10, 11, 12, 13, 14, 15, 16, 17, 18, 19, 20, 21, 25, 26, 27, 28, 29, 32, 33, 34, 35, 36, 37, 38, 39, 40, 41, 42, 43, 44, 45, 47, 51, 52, 53, 54, 55, 60, and 61 according to Formulation Example 1 was added dropwise in an amount of 0.7 ml, and the cup was uniformly charged with about 30 mg of sucrose as a bait. Ten female adults of house fly (Musca domeestica) were set free in each cup, which was then kept covered. After 1 day, their survival was examined to determine the mortality.

[3] = tested on: common mosquito (Culex pipiens pallens); experiment: Test Example 4: treated water, common mosquito final-instar larvae, mortality; settings: 192 h
[4] = active ingredient 3.5 ppm in ion-exchanged water (0.7 ml of 500 ppm dilution), final-instar larvae, after 8 days, read-out: mortality

Row | SMILES | mortality at 500 µg/mL [1] [%] | mortality at 500 µg/mL [2] [%] | mortality at 3.5 ppm [3] [%] | mortality at 500 µg/mL ([1]; water dilution (500 ppm) of flowable (Formulation Example 1), 0.7 ml on filter paper, male adults, after 6 days, read-out: mortality) [%] | mortality at 3.5 ppm [3, 4] [%]
1 | NC(=Nc1c(Cl)cc(C(F)(F)F)cc1[N+](=O)[O-])C(F)(F)C(F)(F)F [present compound 8, N-(2-Chloro-6-nitro-4-trifluoromethylphenyl)-2,2,3,3,3-pentafluoropropionamidine] | 100 | 100 | 100 |  | 
2 | NC(=Nc1c(F)cc(C(F)(F)F)cc1F)C(F)(F)F [present compound 2, N-(2,6-Difluoro-4-trifluoromethylphenyl)-2,2,2-trifluoroacetamidine] | 100 | 100 |  |  | 
3 | NC(=Nc1c([N+](=O)[O-])cc(C(F)(F)F)cc1[N+](=O)[O-])C(F)(F)C(F)C(F)(F)F (stereo not shown) [present compound 44, N-(2,6-Dinitro-4-trifluoromethylphenyl)-2,2,3,4,4,4-hexafluorobutyramidine] | 100 | 100 | 100 |  | 
4 | NC(=Nc1c(Cl)cc(C(F)(F)F)cc1Cl)C(F)(F)C(F)(F)C(F)(F)C(F)(F)F [present compound 30, N-(2,6-Dichloro-4-trifluoromethylphenyl)-2,2,3,3,4,4,5,5,5-nonafluoropentanamidine] |  |  |  | 100 | 100
5 | NC(=Nc1c(Cl)cc(C(F)(F)F)cc1Cl)C(F)(F)C(F)F [present compound 20, N-(2,6-Dichloro-4-trifluoromethylphenyl)-2,2,3,3-tetrafluoropropionamidine] | 100 | 100 | 100 |  | 
6 | NC(=Nc1c(F)cc(C(F)(F)F)cc1Cl)C(F)(F)C(F)(F)F [present compound 19, N-(2-Chloro-6-fluoro-4-trifluoromethylphenyl)-2,2,3,3,3-pentafluoropropionamidine] | 100 | 100 | 100 |  | 
7 | CN(C)C(=Nc1c(Cl)cc(C(F)(F)F)cc1Cl)C(F)(F)C(F)(F)F [present compound 53, N′-(2,6-Dichloro-4-trifluoromethylphenyl)-2,2,3,3,3-pentafluoro-N,N-dimethylpropionamidine] | 100 | 100 | 100 |  | 
8 | NC(=Nc1c([N+](=O)[O-])cc(C(F)(F)F)cc1[N+](=O)[O-])C(F)(Cl)C(F)(F)Br (stereo not shown) [present compound 40, 3-Bromo-2-chloro-N-(2,6-dinitro-4-trifluoromethylphenyl)-2,3,3-trifluoropropionamidine] | 100 | 100 | 100 |  | 
9 | NC(=Nc1c([N+](=O)[O-])cc(OC(F)(F)F)cc1[N+](=O)[O-])C(F)(F)C(F)(F)C(F)(F)F [present compound 45, N-(2,6-Dinitro-4-trifluoromethoxyphenyl)-2,2,3,3,4,4,4-heptafluorobutyramidine] | 100 | 100 | 100 |  | 
10 | NC(=Nc1c(Cl)cc(OC(F)(F)F)cc1Cl)C(F)(F)C(F)(F)F [present compound 18, N-(2,6-Dichloro-4-trifluoromethoxyphenyl)-2,2,3,3,3-pentafluoropropionamidine] | 100 | 100 | 100 |  | 
11 | NC(=Nc1c([N+](=O)[O-])cc(C(F)(F)F)cc1[N+](=O)[O-])C(F)(F)C(F)(F)C(F)(F)F [present compound 21, N-(2,6-Dinitro-4-trifluoromethylphenyl)-2,2,3,3,4,4,4-heptafluorobutyramidine] | 100 | 100 | 100 |  | 
12 | NC(=Nc1c(Cl)cc(C(F)(F)F)cc1Cl)C(F)(F)C(F)(F)C(F)(F)C(F)(F)C(F)(F)F [present compound 31, N-(2,6-Dichloro-4-trifluoromethylphenyl)-2,2,3,3,4,4,5,5,6,6,6-undecafluorohexanamidine] |  |  |  |  | 100
13 | CN(C)C(=Nc1c(Cl)cc(C(F)(F)F)cc1Cl)C(F)(F)F [present compound 52, N′-(2,6-dichloro-4-trifluoromethylphenyl)-2,2,2-trifluoro-N,N-dimethylacetamidine] | 100 | 100 |  |  | 
14 | NC(=Nc1c(Cl)cc(C(F)(F)F)cc1Cl)C(F)F [present compound 7, N-(2,6-Dichloro-4-trifluoromethylphenyl)-2,2-difluoroacetamidine] | 100 | 100 |  |  | 
15 | NC(=Nc1c([N+](=O)[O-])cc(C(F)(F)F)cc1[N+](=O)[O-])C(F)(F)F [present compound 33, N-(2,6-Dinitro-4-trifluoromethylphenyl)-2,2,2-trifluoroacetamidine] | 100 | 100 |  |  | 
16 | NC(=Nc1c([N+](=O)[O-])cc(C(F)(F)C(F)(F)C(F)(F)F)cc1[N+](=O)[O-])C(F)(F)F [present compound 49, N-(2,6-Dinitro-4-heptafluoropropylphenyl)-2,2,2-trifluoroacetamidine] | 100 |  | 100 |  | 
17 | CCNC(=Nc1c(Cl)cc(C(F)(F)F)cc1Cl)C(Cl)Cl [present compound 58, N′-(2,6-Dichloro-4-trifluoromethylphenyl)-2,2-dichloro-N-ethylacetamidine] | 100 |  | 100 |  | 
18 | NC(=Nc1c([N+](=O)[O-])cc(C(F)(F)C(F)(F)C(F)(F)F)cc1[N+](=O)[O-])C(F)(F)C(F)(F)C(F)(F)F [present compound 48, N-(2,6-Dinitro-4-heptafluoropropylphenyl)-2,2,3,3,4,4,4-heptafluorobutyramidine] |  |  | 100 |  | 
19 | CCNC(=Nc1c([N+](=O)[O-])cc(C(F)(F)F)cc1[N+](=O)[O-])C(Cl)Cl [present compound 59, 2,2-Dichloro-N′-(2,6-dinitro-4-trifluoromethylphenyl)-N-ethylacetamidine] | 100 |  | 100 |  | 
20 | NC(=Nc1c(Cl)cc(C(F)(F)F)cc1[N+](=O)[O-])C(F)(F)F [present compound 1, N-(2-chloro-6-nitro-4-trifluoromethylphenyl)-2,2,2-trifluoroacetamidine] | 100 | 100 |  |  | 
21 | CCN(CC)C(=Nc1c(Cl)cc(C(F)(F)F)cc1Cl)C(F)(F)F [present compound 57, N′-(2,6-Dichloro-4-trifluoromethylphenyl)-N,N-diethyl-2,2,2-trifluoroacetamidine] | 100 |  | 100 |  | 
22 | CCCN(CCC)C(=Nc1c(Cl)cc(C(F)(F)F)cc1Cl)C(F)(F)F [present compound 56, N′-(2,6-dichloro-4-trifluoromethylphenyl)-2,2,2-trifluoro-N,N-dipropylacetamidine] | 100 |  |  |  | 
23 | NC(=Nc1c([N+](=O)[O-])cc(C(F)(C(F)(F)F)C(F)(F)F)cc1[N+](=O)[O-])C(F)(F)C(F)(F)C(F)(F)F [present compound 50, N-{2,6-Dinitro-4-(1,2,2,2-tetrafluoro-1-trifluoromethylethyl)phenyl}-2,2,3,3,4,4,4-heptafluorobutyramidine] | 100 |  | 100 |  | 
